Laboratory results published in publication PMC12692861, “Biotin-Linked Ursolic Acid Conjugates as Selective Anticancer Agents and Target-Identification Tools for Cancer Therapy” (Molecules, 2025).

Experiments:
Test in all cases: Streptavidin pulldown proteomics (LC-MS/MS), MB49 cells
Format in all cases: binding, murine
Conditions in all cases: MB-49, 50 µM
[1] = test system: Splicing factor U2AF 65 kDa subunit (U2AF65)
Protocol: (§1) We used proteomics to identify potential molecular targets of 5c. A pulldown assay with streptavidin-agarose-coated magnetic beads was performed. Briefly, 5637 and MB49 cells were incubated with 50 µM 5c for 10 min and 1 h. After incubation, the cells were rinsed three times with cold phosphate-buffered saline (PBS), and cell lysates were prepared and clarified by centrifugation to remove cellular debris, including nuclei. The clarified lysates were incubated with streptavidin-coated magnetic beads to selectively bind biotinylated contents. Bound proteins were separated from unbound proteins through thorough bead washing. Proteins attached to the beads were eluted and analyzed on an Orbitrap Fusion Tribrid mass spectrometer (Thermo Scientific, New York, NY, USA) coupled with an Ultimate 3000 nano-UPLC system. Samples were trapped on a PepMap100 C18 trap column (5 µm, 0.3 × 5 mm) and separated on a PepMap RSLC C18 column (2 µm, 75 µm × 150 mm) using a gradient from 2 to 40% acetonitrile with 0.1% formic acid over 120 min at […] and 40 °C. MS data were acquired in positive mode using data-dependent acquisition (DDA), with precursor scans at 120,000 FWHM (400–2000 m/z), and MS/MS scans in top-speed mode (3 s cycle) using HCD fragmentation (NCE 32%). Proteins were identified and quantified based on peptide spectral matches (PSMs), and fold enrichment compared to controls was calculated to evaluate interaction strength.
(§2) The 5637 and MB49 cells were cultured and treated with higher concentrations of 5c (50 µM) for short period of times (10 min & 60 min) followed by whole cell lysis (WCL) preparation of both treated and untreated cells using modified RIPA buffer [NaCl (100mM), TrisCl (20mM, pH 7.4), EDTA (10 mM), TritonX-100 (0.5%), Glycerol (5%), Protease inhibitor cocktail (1x)] with gentle continuous rotation. The protein content of each WCL was estimated using Pierce™ BCA Protein Assay kit (Thermo-Scientific # 23225). The 100 µL of resuspended Dynabeads™ MyOne™ Streptavidin C1 (Invitrogen # 65001) were washed with PBST (PBS with 0.01% Tween™20) in a magnet stand as recommended in the manufacturer’s instructions. The washed beads were incubated with 200 µg of each WCL in separate tubes at room temperature for 2 h in a gentle end-over-end mixing. After incubation, beads were washed 3–5 times with PBST (0.01% Tween-20) on a magnetic stand and beads were decanted by after spinning and magnetization. The samples were stored at −80 °C till further analysis using LC-MS/MS by the Proteomics and Mass Spectrometry Core Laboratory of Augusta University.

[2] = target: Filamin-A (FLNA) (Mus musculus, UniProt Q8BTM8)
Protocol: as §1, §2

[3] = target: ATP synthase subunit alpha (Mus musculus, UniProt Q03265)
Protocol: as §1, §2

[4] = target: Receptor of activated protein C kinase 1 (RACK1) (Mus musculus, UniProt P68040)
Protocol: as §1, §2

[5] = target: Histone H2A type 2-C (HIST2H2AC) (Mus musculus, UniProt Q64523)
Protocol: as §1, §2

[6] = target: Ribosomal L1 domain-containing protein 1 (RSL1D1) (Mus musculus, UniProt Q8BVY0)
Protocol: as §1, §2

[7] = target: Heterogeneous nuclear ribonucleoprotein U (HNRNPU) (Mus musculus, UniProt Q8VEK3)
Protocol: as §1, §2

[8] = target: D-3-phosphoglycerate dehydrogenase (Mus musculus, UniProt Q61753)
Protocol: as §1, §2

[9] = target: Elongation factor 1-beta (EF1β) (Mus musculus, UniProt O70251)
Protocol: as §1, §2

[10] = target: T-complex protein 1 subunit theta (Mus musculus, UniProt P42932)
Protocol: as §1, §2

[11] = target: Elongation factor 1-delta (EF1δ) (Mus musculus, UniProt P57776)
Protocol: as §1, §2

[12] = test system: DNA topoisomerase
Protocol: as §1, §2

[13] = target: Eukaryotic translation initiation factor 5B (eIF5B) (Mus musculus, UniProt Q05D44)
Protocol: as §1, §2

[14] = test system: Coiled-coil domain-containing protein
Protocol: as §1, §2

[15] = target: Histone H2B type 1-M (Mus musculus, UniProt P10854)
Protocol: as §1, §2

[16] = target: ATP synthase subunit O (Mus musculus, UniProt Q9DB20)
Protocol: as §1, §2

[17] = target: HSP 90-beta (HSP90β) (Mus musculus, UniProt P11499)
Protocol: as §1, §2

[18] = target: Rab-like protein 6 (RABL6) (Mus musculus, UniProt Q5U3K5)
Protocol: as §1, §2

[19] = target: Histone H4 (Mus musculus, UniProt P62806)
Protocol: as §1, §2

[20] = test system: Eukaryotic initiation factor 4A (eIF4A)
Protocol: as §1, §2

[21] = target: HSC 71 (Mus musculus, UniProt P63017)
Protocol: as §1, §2

Chain of Ribosomal L1 domain-containing protein 1 (RSL1D1) (Q8BVY0 whole entry, the tested form may be a part): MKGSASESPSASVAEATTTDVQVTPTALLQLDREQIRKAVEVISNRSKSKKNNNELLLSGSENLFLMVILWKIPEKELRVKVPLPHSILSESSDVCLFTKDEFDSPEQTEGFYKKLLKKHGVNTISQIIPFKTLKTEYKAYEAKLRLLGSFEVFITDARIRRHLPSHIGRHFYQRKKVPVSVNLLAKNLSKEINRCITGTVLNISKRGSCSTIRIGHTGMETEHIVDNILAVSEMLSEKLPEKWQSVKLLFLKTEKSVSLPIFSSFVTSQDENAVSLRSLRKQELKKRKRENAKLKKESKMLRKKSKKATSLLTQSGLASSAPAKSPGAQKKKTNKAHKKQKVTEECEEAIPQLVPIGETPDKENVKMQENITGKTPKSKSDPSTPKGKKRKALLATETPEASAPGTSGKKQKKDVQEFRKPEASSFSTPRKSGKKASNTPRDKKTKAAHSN
Chain of T-complex protein 1 subunit theta (P42932 2-548 limits assumed, one chain of several): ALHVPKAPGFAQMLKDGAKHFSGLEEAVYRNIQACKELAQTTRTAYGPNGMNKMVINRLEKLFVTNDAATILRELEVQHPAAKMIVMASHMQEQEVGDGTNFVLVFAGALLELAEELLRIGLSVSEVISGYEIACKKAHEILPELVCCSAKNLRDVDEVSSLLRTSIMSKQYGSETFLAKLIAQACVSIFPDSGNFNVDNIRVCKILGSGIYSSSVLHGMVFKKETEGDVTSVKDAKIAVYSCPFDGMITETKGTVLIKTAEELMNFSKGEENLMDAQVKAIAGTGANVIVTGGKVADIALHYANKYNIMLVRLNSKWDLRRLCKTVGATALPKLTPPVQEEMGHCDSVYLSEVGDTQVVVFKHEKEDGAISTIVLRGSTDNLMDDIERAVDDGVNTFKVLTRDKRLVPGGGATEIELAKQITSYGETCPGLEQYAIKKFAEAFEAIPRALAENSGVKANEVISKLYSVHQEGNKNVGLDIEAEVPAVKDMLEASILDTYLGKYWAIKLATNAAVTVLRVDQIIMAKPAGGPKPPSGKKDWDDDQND
Chain of HSC 71 (P63017 whole entry): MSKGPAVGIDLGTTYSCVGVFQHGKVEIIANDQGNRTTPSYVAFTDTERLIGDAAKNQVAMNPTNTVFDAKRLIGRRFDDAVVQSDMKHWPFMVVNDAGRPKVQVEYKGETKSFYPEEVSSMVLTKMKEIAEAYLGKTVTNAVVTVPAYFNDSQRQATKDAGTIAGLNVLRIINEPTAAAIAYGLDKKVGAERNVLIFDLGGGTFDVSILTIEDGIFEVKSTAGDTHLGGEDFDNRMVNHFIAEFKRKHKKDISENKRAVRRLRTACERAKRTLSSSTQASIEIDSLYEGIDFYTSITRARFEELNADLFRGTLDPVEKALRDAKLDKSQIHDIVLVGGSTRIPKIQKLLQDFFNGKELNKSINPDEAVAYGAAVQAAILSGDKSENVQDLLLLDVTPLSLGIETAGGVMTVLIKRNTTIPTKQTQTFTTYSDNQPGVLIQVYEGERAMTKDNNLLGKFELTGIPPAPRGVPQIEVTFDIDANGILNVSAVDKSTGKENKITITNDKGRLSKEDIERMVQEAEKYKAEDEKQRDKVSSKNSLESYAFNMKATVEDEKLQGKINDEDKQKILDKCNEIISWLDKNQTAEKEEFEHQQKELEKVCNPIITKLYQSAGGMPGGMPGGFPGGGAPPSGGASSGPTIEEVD
Chain of Elongation factor 1-delta (EF1δ) (P57776 whole entry): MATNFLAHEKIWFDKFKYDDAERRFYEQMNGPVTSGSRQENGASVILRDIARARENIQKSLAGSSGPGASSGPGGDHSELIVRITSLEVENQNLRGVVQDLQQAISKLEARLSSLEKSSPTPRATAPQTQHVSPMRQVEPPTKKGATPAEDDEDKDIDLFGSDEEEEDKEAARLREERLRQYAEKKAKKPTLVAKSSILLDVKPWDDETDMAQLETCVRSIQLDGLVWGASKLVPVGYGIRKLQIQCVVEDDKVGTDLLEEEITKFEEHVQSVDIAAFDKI
Chain of Eukaryotic translation initiation factor 5B (eIF5B) (Q05D44 whole entry): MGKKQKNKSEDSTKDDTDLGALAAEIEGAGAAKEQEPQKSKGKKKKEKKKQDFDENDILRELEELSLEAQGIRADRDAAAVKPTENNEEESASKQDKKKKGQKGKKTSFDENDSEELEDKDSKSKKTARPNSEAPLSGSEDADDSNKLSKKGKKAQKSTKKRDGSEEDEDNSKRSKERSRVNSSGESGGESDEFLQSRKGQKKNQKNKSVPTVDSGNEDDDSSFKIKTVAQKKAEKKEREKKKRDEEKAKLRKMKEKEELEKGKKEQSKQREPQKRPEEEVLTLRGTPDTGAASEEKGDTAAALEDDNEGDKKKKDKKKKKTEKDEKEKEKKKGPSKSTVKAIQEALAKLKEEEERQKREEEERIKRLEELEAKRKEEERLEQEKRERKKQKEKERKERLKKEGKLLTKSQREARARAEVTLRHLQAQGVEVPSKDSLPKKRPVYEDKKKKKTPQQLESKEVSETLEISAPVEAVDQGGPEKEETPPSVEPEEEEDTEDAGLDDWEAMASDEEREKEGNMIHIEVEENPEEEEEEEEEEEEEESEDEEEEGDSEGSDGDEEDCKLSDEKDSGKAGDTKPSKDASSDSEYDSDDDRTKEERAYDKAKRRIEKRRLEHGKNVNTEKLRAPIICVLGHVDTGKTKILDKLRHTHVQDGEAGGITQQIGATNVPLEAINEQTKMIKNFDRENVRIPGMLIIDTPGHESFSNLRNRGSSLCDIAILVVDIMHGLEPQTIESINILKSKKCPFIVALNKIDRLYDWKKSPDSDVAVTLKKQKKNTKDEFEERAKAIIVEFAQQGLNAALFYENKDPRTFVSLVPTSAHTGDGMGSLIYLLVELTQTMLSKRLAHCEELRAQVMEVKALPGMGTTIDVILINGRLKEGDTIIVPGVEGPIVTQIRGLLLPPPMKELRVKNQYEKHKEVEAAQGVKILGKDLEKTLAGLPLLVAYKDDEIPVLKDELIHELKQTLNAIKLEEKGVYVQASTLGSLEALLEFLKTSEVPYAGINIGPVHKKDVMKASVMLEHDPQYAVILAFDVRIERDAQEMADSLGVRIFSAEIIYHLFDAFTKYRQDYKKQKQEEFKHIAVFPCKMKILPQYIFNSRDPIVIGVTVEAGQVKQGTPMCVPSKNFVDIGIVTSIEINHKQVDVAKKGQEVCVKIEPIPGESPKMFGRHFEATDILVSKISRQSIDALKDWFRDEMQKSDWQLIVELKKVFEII
Chain of D-3-phosphoglycerate dehydrogenase (Q61753 whole entry): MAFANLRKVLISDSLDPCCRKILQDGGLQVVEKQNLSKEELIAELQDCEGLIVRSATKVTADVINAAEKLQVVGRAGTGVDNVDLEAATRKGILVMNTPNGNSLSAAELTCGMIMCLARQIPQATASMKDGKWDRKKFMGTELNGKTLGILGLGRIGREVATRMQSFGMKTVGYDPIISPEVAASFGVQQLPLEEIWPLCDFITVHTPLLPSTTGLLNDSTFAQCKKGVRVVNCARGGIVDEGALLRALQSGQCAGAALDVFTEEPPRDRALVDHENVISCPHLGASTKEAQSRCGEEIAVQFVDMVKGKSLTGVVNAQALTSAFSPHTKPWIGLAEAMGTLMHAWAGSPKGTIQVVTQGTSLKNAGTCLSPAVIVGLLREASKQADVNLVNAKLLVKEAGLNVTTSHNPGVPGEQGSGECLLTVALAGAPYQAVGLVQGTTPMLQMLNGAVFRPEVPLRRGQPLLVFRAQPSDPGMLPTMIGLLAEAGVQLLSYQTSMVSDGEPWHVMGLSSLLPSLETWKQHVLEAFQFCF
Chain of Elongation factor 1-beta (EF1β) (O70251 whole entry): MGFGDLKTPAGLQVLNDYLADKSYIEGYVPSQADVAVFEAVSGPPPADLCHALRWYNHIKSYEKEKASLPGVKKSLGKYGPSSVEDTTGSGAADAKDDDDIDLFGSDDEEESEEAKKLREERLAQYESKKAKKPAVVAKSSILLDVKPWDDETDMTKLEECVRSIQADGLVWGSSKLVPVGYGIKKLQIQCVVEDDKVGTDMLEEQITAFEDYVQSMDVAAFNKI
Chain of Heterogeneous nuclear ribonucleoprotein U (HNRNPU) (Q8VEK3 whole entry): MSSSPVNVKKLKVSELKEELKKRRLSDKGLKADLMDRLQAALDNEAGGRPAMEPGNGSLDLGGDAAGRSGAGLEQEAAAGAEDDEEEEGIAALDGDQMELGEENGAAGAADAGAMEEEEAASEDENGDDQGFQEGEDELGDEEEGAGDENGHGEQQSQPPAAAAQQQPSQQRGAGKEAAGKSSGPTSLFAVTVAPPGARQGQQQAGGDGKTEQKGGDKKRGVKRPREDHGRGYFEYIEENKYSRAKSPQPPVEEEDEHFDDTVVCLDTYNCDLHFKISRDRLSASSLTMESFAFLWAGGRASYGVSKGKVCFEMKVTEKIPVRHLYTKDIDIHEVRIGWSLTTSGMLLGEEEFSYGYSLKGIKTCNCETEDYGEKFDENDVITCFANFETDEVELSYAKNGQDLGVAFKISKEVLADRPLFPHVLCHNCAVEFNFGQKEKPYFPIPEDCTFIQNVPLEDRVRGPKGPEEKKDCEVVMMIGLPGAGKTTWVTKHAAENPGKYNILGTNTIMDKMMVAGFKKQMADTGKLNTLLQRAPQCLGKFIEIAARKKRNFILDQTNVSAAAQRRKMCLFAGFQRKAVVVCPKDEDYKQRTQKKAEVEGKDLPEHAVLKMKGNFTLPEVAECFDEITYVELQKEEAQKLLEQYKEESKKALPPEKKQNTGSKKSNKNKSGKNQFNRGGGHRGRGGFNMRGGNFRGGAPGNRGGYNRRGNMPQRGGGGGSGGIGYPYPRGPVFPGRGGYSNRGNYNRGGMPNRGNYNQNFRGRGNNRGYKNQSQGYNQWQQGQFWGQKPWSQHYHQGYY
Chain of ATP synthase subunit O (Q9DB20 24-213): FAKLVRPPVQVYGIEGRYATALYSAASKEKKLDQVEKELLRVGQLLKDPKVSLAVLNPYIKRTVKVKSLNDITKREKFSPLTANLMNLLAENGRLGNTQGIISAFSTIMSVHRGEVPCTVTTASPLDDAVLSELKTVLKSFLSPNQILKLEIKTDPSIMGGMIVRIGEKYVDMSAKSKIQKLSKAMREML

Fold Change 10 min/Ctrl [2]: 3.33 | Fold Change 1 h/Ctrl [2]: 4 | Fold Change 10 min/Ctrl [3]: 1.26 | Fold Change 1 h/Ctrl [3]: 1.26 | Fold Change 10 min/Ctrl [4]: 0.88 | Fold Change 1 h/Ctrl [4]: 1.29 | Fold Change 10 min/Ctrl [5]: 1.58 | Fold Change 1 h/Ctrl [5]: 1.27 | Fold Change 10 min/Ctrl [6]: 1.33 | Fold Change 1 h/Ctrl [6]: 1.56 | Fold Change 10 min/Ctrl [7]: 2.38 | Fold Change 1 h/Ctrl [7]: 2.13 | Fold Change 10 min/Ctrl [8]: 0.8 | Fold Change 1 h/Ctrl [8]: 1.6 | Fold Change 10 min/Ctrl [9]: 5 | Fold Change 1 h/Ctrl [9]: 5 | Fold Change 10 min/Ctrl [10]: 2 | Fold Change 1 h/Ctrl [10]: 3 | Fold Change 10 min/Ctrl [11]: 1.4 | Fold Change 1 h/Ctrl [11]: 2 | Fold Change 10 min/Ctrl [13]: 3 | Fold Change 1 h/Ctrl [13]: 2.75 | Fold Change 10 min/Ctrl [15]: 2.04 | Fold Change 1 h/Ctrl [15]: 1.81 | Fold Change 10 min/Ctrl [16]: 4 | Fold Change 1 h/Ctrl [16]: 5 | Fold Change 10 min/Ctrl [17]: 1.40 | Fold Change 1 h/Ctrl [17]: 1.71 | Fold Change 10 min/Ctrl [18]: 3 | Fold Change 1 h/Ctrl [18]: 5.5 | Fold Change 10 min/Ctrl [19]: 1.64 | Fold Change 1 h/Ctrl [19]: 1.18 | Fold Change 10 min/Ctrl [21]: 1.5 | Fold Change 1 h/Ctrl [21]: 2
SMILES: CC1CCC2(C(=O)OCCCCOC(=O)CCCCC3SCC4NC(=O)NC43)CCC3(C)C(=CCC4C5(C)CCC(O)C(C)(C)C5CCC43C)C2C1C [Compound 5c, 4-((5-((3aS,4S,6aR)-2-Oxohexahydro-1H-thieno [3,4-d]imidazol-4-yl)pentanoyl)oxy) butyl 3-hydroxy-urs-12-en-28-oate]
Fold Change 10 min/Ctrl [1]: 4 | Fold Change 1 h/Ctrl [1]: 3 | Fold Change 10 min/Ctrl [12]: 1 | Fold Change 1 h/Ctrl [12]: 1.75 | Fold Change 10 min/Ctrl [14]: 0 | Fold Change 1 h/Ctrl [14]: 0 | Fold Change 10 min/Ctrl [20]: 1 | Fold Change 1 h/Ctrl [20]: 3
